These are literature values, as cited in patent US20230330042A1, “FORMULATION FOR ORAL ADMINISTRATION” (NIPPON ZOKI PHARMACEUTICAL CO., LTD., priority 2020, published 2023).

Where two headings read alike, the source gives them in different places. Where only a bound is given, the exact number is not on record here.

By Ki is commonly meant the dissociation constant of the complex between target and ligand, obtained from inhibition or displacement. Usually half-life stands for how long it takes for the measured level to halve.

One series deals with κ-opioid receptor (Homo sapiens, UniProt P41145). The settings on record: read-out: Ki κ.
Chain of κ-opioid receptor (P41145 whole entry): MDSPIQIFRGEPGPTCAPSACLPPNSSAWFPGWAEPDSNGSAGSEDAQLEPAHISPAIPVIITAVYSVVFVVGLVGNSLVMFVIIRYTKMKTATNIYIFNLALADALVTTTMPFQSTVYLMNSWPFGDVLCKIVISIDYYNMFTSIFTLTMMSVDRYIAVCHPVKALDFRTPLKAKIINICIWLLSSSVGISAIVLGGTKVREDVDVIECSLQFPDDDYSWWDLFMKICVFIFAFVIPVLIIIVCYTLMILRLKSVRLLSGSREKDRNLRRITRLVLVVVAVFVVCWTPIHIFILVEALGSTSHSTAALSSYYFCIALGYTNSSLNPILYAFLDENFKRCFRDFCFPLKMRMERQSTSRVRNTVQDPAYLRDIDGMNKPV
Another series addresses Noradrenaline reuptake (Homo sapiens, UniProt P23975).
The target in a further series is δ-opioid receptor (Homo sapiens, UniProt P41143). The settings on record: read-out: Ki δ; Mean value (n = 2-3).
Chain of δ-opioid receptor (P41143 whole entry): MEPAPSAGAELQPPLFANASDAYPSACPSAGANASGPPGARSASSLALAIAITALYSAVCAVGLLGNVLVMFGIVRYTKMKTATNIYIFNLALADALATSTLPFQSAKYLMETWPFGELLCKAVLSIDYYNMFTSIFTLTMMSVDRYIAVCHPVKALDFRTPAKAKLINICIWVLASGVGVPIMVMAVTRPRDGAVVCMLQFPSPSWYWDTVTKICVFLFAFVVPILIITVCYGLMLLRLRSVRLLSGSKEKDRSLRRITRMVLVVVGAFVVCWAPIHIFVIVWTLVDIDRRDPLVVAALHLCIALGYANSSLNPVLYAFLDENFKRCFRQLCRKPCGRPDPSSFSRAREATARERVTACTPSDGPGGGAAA
The conditions of series [1]: in vivo.
The target in the next series is μ-opioid receptor (Homo sapiens, UniProt P35372). The settings on record: read-out: Ki μ; Mean value (n = 2-3).
Chain of μ-opioid receptor (P35372 whole entry, species assumed): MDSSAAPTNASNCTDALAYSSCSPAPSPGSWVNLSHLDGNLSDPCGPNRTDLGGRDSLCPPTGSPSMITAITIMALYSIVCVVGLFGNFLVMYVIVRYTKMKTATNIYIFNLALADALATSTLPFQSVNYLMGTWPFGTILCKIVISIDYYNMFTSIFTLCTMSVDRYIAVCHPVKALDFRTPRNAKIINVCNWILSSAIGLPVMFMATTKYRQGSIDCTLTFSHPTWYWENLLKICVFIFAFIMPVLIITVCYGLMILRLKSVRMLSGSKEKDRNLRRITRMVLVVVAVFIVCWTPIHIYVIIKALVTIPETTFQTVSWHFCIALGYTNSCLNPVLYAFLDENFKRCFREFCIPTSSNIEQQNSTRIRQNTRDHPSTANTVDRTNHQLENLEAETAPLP
The target in the next series is Serotonin reuptake (Homo sapiens, UniProt P31645). The settings on record: read-out: Ki Serotonin.
Chain of Serotonin reuptake (P31645 whole entry): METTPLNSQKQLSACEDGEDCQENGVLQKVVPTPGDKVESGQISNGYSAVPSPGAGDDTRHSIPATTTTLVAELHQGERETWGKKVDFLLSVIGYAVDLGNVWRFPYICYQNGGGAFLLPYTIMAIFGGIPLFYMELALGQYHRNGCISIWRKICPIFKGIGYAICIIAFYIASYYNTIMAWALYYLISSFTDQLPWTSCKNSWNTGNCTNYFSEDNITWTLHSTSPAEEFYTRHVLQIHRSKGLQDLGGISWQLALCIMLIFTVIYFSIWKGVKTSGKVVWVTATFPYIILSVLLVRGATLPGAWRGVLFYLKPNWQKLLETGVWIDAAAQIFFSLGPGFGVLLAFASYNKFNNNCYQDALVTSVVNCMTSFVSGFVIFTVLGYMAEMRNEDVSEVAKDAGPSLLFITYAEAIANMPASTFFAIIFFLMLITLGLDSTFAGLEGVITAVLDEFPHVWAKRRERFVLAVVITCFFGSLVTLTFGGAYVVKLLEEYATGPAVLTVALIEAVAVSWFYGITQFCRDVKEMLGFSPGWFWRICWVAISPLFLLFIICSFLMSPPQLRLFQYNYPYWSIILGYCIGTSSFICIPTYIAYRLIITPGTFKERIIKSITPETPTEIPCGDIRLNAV
Setting [2] is: Mean value (n = 2-3); NA: no activity at 10 μmol/L; read-out: Ki Noradrenaline.
The mark [3] stands for this setting: read-out: Ki Noradrenaline; Mean value (n = 2-3); NA: no activity at 10 μmol/L.

Chain of Noradrenaline reuptake (P23975 whole entry): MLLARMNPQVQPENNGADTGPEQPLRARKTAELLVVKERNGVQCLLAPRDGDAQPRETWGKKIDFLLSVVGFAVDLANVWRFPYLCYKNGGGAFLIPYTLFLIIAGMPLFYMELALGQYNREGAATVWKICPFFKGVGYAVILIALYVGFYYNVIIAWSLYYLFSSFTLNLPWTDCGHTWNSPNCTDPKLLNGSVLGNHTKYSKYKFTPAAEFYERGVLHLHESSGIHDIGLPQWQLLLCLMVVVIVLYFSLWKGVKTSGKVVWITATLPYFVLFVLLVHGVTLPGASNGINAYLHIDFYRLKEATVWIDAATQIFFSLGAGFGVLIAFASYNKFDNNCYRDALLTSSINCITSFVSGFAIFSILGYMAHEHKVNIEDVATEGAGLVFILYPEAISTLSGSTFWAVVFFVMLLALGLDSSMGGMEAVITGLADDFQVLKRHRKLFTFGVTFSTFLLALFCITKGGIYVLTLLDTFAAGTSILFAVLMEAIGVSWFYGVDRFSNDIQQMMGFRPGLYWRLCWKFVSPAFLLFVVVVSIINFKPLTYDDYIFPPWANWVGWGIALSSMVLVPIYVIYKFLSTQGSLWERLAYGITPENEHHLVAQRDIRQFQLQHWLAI

For the compound `COc1cccc(C2(O)CCCCC2CN(C)C)c1` (single isomer, unassigned; (-)) [(−)-Tramadol, (−)-tramadol], the inhibition constant Ki at κ-opioid receptor is 53.5 µM; on Noradrenaline reuptake (setting [2]) it was 0.432 µM; on δ-opioid receptor, 213 µM.

For `CN(C)CC1CCCCC1(O)c1cccc(O)c1` (single isomer, unassigned; (-)) [(−)-M1], the values for the Ki on κ-opioid receptor (Mean value (n = 2-3)), at Noradrenaline reuptake (setting [2]) and on δ-opioid receptor were 32.9 µM, 0.857 µM and 30.5 µM, respectively.

For `COc1cccc(C2(O)CCCCC2CN(C)C)c1` (single isomer, unassigned; (+)) [(+)-Tramadol, (+)-tramadol], the Ki on κ-opioid receptor is 54 µM; on Noradrenaline reuptake (setting [2]) it was 2.51 µM; at δ-opioid receptor, 6.24 µM.

Consider `CN(C)CC1CCCCC1(O)c1cccc(O)c1` (racemic) [(±)-M1, O-desmethyltramadol], for which the values for the inhibition constant Ki at κ-opioid receptor (Mean value (n = 2-3)) and on Noradrenaline reuptake (setting [2]) were 0.242 µM and 1.52 µM, respectively. In series [1] (po), the half-life is 6 to 7 h.

For `COc1cccc([C@@]2(O)CCCC[C@@H]2CN(C)C)c1` (racemic) [(±)-Tramadol, (1RS,2RS)-2-[(dimethylamino)methyl]-1-(3-methoxyphenyl)cyclohexanol], the Ki at κ-opioid receptor was 42.7 µM. For the same compound, the Ki on Noradrenaline reuptake (setting [3]) was 0.785 µM. Besides, the “unchanged tramadol and metabolites excreted through the kidney” value in series [1] is reported as “about 90%”. For the same compound, in series [1] (po), the half-life is 5 to 6 h, the “time after administration at which the maximum drug concentration is reached” value was 1.6 to 1.9 h and the “time at which the maximum concentration in the brain is reached” value is 10 min. Besides, on δ-opioid receptor, the inhibition constant (Ki) is 57.7 µM.

In the case of `CN(C)CC1CCCCC1(O)c1cccc(O)c1` (single isomer, unassigned; (+)) [(+)-M1], the Ki at κ-opioid receptor (Mean value (n = 2-3)) is 0.706 µM; at Noradrenaline reuptake (setting [2]), 14.4 µM; on δ-opioid receptor, 0.594 µM.

In the case of `CN(C)CCCN1c2ccccc2CCc2ccccc21` [Imipramine], the inhibition constant (Ki) on μ-opioid receptor is 3.73 µM; at δ-opioid receptor, 12.7 µM.

As to `COc1ccc2c3c1O[C@H]1[C@@H](O)C=C[C@H]4[C@@H](C2)N(C)CC[C@@]341` [Codeine], the Ki on Serotonin reuptake and on Noradrenaline reuptake (setting [3]) was over 10 µM in each case.
